In test [1] the target is T1, α4β7 (Homo sapiens, UniProt P13612+P26010).
T1 construct: endogenous in cells; host or cells: RPMI 8866 cells
T1 sequence (P13612 34-1032): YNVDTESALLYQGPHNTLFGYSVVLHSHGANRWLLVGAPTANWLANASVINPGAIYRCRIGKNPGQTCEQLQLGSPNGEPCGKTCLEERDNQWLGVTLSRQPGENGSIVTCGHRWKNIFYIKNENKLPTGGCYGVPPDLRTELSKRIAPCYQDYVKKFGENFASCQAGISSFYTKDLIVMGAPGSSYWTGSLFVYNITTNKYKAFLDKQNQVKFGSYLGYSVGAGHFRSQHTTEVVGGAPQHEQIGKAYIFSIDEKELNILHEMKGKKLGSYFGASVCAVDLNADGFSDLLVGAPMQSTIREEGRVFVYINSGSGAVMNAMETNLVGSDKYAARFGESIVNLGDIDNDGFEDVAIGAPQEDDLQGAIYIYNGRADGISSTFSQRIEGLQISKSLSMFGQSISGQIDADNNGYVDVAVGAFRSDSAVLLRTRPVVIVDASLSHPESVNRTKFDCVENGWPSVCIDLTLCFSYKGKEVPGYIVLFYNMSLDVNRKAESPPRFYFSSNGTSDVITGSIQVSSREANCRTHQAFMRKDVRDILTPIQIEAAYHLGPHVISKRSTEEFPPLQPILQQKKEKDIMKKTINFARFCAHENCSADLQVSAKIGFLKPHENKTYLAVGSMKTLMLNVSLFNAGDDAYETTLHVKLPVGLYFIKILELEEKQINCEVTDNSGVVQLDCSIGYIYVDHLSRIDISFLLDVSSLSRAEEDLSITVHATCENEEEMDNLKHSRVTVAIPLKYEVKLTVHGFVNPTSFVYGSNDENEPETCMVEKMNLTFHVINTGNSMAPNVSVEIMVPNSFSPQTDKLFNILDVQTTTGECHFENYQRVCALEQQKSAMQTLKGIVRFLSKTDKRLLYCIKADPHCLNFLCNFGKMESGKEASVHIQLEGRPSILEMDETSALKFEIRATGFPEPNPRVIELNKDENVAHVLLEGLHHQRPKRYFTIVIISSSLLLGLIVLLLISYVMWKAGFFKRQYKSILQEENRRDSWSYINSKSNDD
T1 sequence (P26010 20-798): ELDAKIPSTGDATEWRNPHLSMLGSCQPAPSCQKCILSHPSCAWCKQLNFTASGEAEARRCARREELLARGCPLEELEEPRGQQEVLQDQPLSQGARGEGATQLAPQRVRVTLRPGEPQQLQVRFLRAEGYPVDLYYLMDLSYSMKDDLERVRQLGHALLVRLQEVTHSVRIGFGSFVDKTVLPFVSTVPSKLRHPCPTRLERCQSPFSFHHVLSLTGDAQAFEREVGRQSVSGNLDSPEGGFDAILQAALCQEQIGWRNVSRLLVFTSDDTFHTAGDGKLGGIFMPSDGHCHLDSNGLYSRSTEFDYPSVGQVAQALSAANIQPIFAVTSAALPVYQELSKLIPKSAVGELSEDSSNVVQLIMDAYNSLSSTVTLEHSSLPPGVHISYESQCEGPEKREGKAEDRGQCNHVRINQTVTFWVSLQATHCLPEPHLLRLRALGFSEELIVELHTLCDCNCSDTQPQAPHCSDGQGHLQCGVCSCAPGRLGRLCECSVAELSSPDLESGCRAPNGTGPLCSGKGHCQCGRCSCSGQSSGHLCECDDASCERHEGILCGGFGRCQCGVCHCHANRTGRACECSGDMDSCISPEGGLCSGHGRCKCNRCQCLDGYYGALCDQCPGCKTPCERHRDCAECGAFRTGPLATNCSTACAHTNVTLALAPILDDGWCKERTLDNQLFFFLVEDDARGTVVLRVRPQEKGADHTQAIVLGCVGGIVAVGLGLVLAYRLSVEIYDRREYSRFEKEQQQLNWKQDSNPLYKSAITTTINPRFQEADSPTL
The experiment in a line: Cell-based MAdCAM-1 ligand binding assay (LBA) on RPMI 8866 cells (Example 6). The following applies: MAdCAM-1-Fc Dylight 650, 3 mM manganese chloride, flow cytometry, Table 4 comparative compounds, read-out: LB Assay (Example 6). The source says: Compounds of Formula (I) were further evaluated using a Ligand binding assay (LBA) to examine compound potency of free ligand binding to receptors expressed on cells. The MAdCAM ligand binding assay uses flow cytometry to measure the binding of fluorescently-labeled MAdCAM-1-Fc to RPMI 8866 cells in the presence of Mn++. This assay assesses the binding of compounds to native full-length receptors on the cell surface. […] Ligand binding assays (LBA) are used to examine compound potency and selectivity of free ligand binding to receptors expressed on cells.
(§1) Three in vitro assays were used to examine the α4β7 mechanistic process used by cells: 1) ligand:receptor affinity, 2) the avidity of those interactions on a cell's surface, and 3) how those interactions fare under an imposing force. In Example 5, a Fluorescence Polarization (FP) assay is used to measure compound activity through binding competition with the fluorescein-labeled peptide. In Example 6, the potency of compounds against α4β7 is measured in the cell-based ligand binding assay (LBA), using RPMI 8866 cells incubated with the compound samples in competition with soluble MAdCAM-1 ligand. In Example 7, activity of compounds is evaluated in a cell adhesion assay that mechanistically tests what occurs in vivo when trafficking cells utilize α4β7 to adhere to MAdCAM-1 expressing HEVs of the gut during the extravasation process. In the cell adhesion assay of Example 7, a MAdCAMI1-(Fc) is coated on plastic, and α4β7 expressing cells (RPMI-8866) are allowed to adhere to the coated surface in the presence of the test compounds. Next, the force of washing with buffer is applied to cells thereby testing the strength of that adhesion. Unattached cells are removed and the remaining adherent cells are quantified.
5 ul of 33 nM MAdCAM-1-Fc fluorescently labeled with Dylight 650 in 50 mM HEPES pH 7.3, 150 mM sodium chloride, and 1% bovine serum albumin was added to the cells. The samples were incubated for 45 minutes at room temperature, fixed with 0.8% formaldehyde for 30 minutes at room temperature, and washed with 50 mM Tris pH 7.5, 150 mM NaCl, 1 mM EDTA, and 1% bovine serum albumin. Fluorescence intensity for each cell was measured via flow cytometry. Dead cells were excluded from further analysis based on staining with the 780 fixable viability dye. Median fluorescence intensity for Dylight 650 was determined for each sample and concentration-response curves were analyzed for IC50 values using 4-parameter non-linear regression analysis.
(A flow cytometer gives signals particle by particle.)

For test [2], the target named is T1, α4β7. Put plainly: Cell adhesion assay, RPMI8866 cells on MAdCAM coated plates (Example 7). In kind it is cell-based. The following applies: RPMI8866 cells adhering to recombinant human MAdCAM, read-out: CA Assay (Example 7). How it is done: as §1
Example 7 describes a cell adhesion assay.
To each well of a 96 well plate, 100 ug of recombinant human MAdCAM in 100 ul PBS is added and incubated overnight at 4° C. After incubation MAdCAM is removed by aspiration and 200 ul of PBS+1% BSA is added to block the plate for 2 hours at 37° C. and 5% CO2. During this incubation dilution curves of compound are made in 100% DMSO in 96 well V bottom plates. 1.75 ul of diluted compounds are then transferred to a new 96 well U bottom plate containing 20 ul of assay media (phosphate free DMEM+25 mM HEPES+1% BSA). To this an additional 155 ul of assay media is added with mixing by pipetting up and down. This mixture is allowed to incubate for 15 minutes at 37° C. and 5% CO2. After incubation 175 ul of assay media containing 2e6/mL RPMI8866 cells is added to compound containing wells without mixing and plate is allowed to incubate for another 15 minutes at 37° C. and 5% CO2. During this incubation MAdCAM coated plates are removed from incubator and washed twice with 200 ul PBS+0.1% BSA. […] This plate is then incubated at 37° C. and 5% CO2 for 1 hour. After incubation plates are washed twice with 200 ul and once with 50 ul of phenol free RPMI+1% BSA. A final 50 ul of phenol free RPMI+1% BSA is added to wells after last wash. Next 50 ul of Promega cell titer glow is added to the wells. Plate is incubated on shaker for 2 minutes at 200 RPM followed by another 8 minutes off shaker before having the luminescence read on a Biotek Citation 5 plate reader. Raw data is converted to % inhibition compared to bottom of curve and analyzed using a 4-parameter non linear curve in Prism to determine IC50 and IC90.

Another test deals with T2, integrin α4β7 (Homo sapiens, UniProt P13612+P26010).
T2 sequence (P13612 35-977 limits assumed): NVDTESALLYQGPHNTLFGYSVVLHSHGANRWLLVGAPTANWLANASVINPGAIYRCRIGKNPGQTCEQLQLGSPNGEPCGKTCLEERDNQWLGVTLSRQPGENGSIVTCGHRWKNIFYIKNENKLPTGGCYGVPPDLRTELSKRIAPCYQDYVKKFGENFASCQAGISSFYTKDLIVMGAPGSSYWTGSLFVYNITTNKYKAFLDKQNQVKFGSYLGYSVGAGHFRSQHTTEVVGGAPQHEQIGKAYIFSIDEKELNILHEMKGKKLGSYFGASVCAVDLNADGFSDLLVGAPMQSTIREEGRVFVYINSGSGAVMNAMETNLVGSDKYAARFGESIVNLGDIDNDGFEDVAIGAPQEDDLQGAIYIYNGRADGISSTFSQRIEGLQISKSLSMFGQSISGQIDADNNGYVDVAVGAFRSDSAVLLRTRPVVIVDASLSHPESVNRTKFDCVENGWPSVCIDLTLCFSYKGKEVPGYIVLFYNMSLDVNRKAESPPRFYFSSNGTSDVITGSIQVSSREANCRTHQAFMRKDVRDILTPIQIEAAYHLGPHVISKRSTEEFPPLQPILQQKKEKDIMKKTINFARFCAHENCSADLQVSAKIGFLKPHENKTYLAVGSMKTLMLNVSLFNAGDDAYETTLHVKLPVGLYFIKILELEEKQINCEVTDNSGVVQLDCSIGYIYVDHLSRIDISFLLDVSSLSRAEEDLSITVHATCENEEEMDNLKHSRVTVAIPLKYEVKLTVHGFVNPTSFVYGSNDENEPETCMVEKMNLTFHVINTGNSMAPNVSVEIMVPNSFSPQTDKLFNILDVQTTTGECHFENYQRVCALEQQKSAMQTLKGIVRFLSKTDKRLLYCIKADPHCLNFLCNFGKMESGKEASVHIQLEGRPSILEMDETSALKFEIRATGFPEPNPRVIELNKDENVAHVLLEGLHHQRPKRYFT
T2 sequence (P26010 20-723 limits assumed): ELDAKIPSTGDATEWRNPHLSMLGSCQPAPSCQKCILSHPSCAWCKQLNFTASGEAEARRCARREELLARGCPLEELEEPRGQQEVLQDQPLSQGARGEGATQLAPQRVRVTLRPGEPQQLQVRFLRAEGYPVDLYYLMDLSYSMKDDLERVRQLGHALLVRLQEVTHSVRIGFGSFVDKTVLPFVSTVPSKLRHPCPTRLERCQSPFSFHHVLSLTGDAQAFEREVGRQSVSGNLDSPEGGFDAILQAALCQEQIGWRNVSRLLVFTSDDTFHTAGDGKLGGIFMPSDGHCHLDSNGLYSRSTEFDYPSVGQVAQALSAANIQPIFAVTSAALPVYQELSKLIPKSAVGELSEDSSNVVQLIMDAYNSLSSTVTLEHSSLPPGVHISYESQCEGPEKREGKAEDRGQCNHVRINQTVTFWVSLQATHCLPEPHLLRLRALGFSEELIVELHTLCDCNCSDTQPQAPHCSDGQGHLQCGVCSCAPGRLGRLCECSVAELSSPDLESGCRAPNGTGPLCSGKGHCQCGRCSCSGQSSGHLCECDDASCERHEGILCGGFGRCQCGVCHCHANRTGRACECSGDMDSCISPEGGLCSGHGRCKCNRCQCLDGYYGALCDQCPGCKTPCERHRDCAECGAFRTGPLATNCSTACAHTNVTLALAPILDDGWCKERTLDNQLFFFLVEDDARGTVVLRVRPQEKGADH
Put plainly: Fluorescence polarization (FP) assay for α4β7 binding (Example 5). The following applies: competition with fluorescein-labeled peptide, 6.5 nM integrin α4β7, 2 mM manganese chloride; Table 4 comparative compounds. How it is done:
Compounds of Formula (I) were evaluated using a fluorescent polarization (FP) assay. FP assays are used to evaluate potency of compounds on purified protein. The FP assays consists of measuring purified integrin αβ heterodimer ecto domains or headpiece binding to surrogate or truncated ligands.
as §1
Fluorescence Polarization (FP) assays were used to measure compound activity through binding competition with the fluorescein-labeled peptide […]{Lys(FITC)}. In the assay, 6.5 nM of integrin α4β7 was incubated with the test compound in 2 mM manganese chloride, 0.1 mM calcium chloride, 20 mM HEPES buffer at pH 7.3, 150 mM sodium chloride, 0.01% Triton X-100, 2% DMSO, and 3 nM of the fluorescein-labeled peptide. Running the assays in 384-well plates, the integrin protein was pre-incubated with the test compounds for 15 minutes at 22° C. before the fluorescein-labeled peptide was added. After the fluorescein-labeled peptide was added, the assay was incubated at 22° C. for 1 hour and fluorescence polarization was measured. IC50 values were determined by nonlinear regression, four-parameter curve fitting.

Bounds are passed on as bounds.

Take `Cc1ccccc1-c1cc([C@H](CC(=O)O)NC(=O)[C@H](CC(C)C)n2ccc(C(F)(F)F)cc2=O)cnc1C`: the IC50 at α4β7 [1] is 10 to 500 nM; at α4β7 [2] (Table 4 comparative compounds), more than 100 nM.

For `COC1CN(CCc2cn([C@H](CC(C)C)C(=O)N[C@@H](CC(=O)O)c3cc(-c4c(C)cccc4C)cc(Cl)c3F)c(=O)cc2C(F)(F)F)C1` [W-P2, (3S)-3-(5-chloro-4-fluoro-2′,6′-dimethyl-[1,1′-biphenyl]-3-yl)-3-(2-(5-(2-(3-methoxyazetidin-1-yl)ethyl)-2-oxo-4-(trifluoromethyl)pyridin-1(2H)-yl)-4-methylpentanamido)propanoic acid], the IC50 on α4β7 [2] (Table 3) was less than 5 nM. For the compound `Cc1cccc(C)c1-c1cncc([C@@H](CC(=O)O)NC(=O)[C@@H](CC(C)C)n2ccccc2=O)c1`, on integrin α4β7, the IC50 is more than 500 nM.

Take `Cc1cccc(C)c1-c1cncc([C@H](CC(=O)O)NC(=O)[C@@H](CC(C)C)n2ccccc2=O)c1`: the IC50 on integrin α4β7 is 10 to 500 nM. Same read-out and setting: then `Cc1cccc(C)c1-c1cncc([C@@H](CC(=O)O)NC(=O)[C@H](CC(C)C)n2ccccc2=O)c1`, with more than 500 nM.

For the origin of these results see patent US11104661B1, “Inhibiting human integrin (α-4) (β-7)” (Morphic Therapeutic, Inc., priority 2019, dated 2021).
